Results published in patent publication US20240360148A1 (SUVALENT THERAPEUTICS, INC., priority 2021, published 2024).

Assays:
SAE1 = SAE1 (Homo sapiens (Human), UniProt Q9UBT2); experiment: SAE High Throughput Biochemical Assay (HTRF), 15 min preincubation; conditions: SAE1 12.5 nM, ATP 100 μM
Procedure, shortened: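 SAE1 (12.5 nM) was preincubated with compound for 15 min at RT in HEPES pH 7.5, 0.1% BSA, 10 mM MgCl2. The reaction was then started with SUMO-GST and UBC9-His (40 nM each) plus 100 μM ATP for 45 min. After KF stop, HTRF (anti-GST-XL665/anti-His-EuK) was read at 2 h and overnight; some compounds were tested singly at 25 micromolar as percent of control.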

[1] = tested on: sumoylation levels (SUMO 2/3 conjugates) in HCT-116 cells; experiment: HCT-116 4 Hour Cell Assay (Western, SUMO 2/3 conjugates); assay type: cell-based; conditions: Homo sapiens, HCT-116, 4 h, 4 h treatment, Anti-Sumo 2-3 immunoblot, read-out: HCT-116 Western 4 h IC50 (μM) Ave
Procedure, shortened: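 Cells treated 4 h with 11 three-fold dilutions from 25 μM; lysed in RIPA with NEM and Benzonase. Non-reducing SDS-PAGE immunoblot with anti-SUMO 2/3 mAb, IRDye fluorescent detection; conjugate signal normalized to total protein stain, IC50 from quantified bands.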

Chain of SAE1 (Q9UBE0 whole entry): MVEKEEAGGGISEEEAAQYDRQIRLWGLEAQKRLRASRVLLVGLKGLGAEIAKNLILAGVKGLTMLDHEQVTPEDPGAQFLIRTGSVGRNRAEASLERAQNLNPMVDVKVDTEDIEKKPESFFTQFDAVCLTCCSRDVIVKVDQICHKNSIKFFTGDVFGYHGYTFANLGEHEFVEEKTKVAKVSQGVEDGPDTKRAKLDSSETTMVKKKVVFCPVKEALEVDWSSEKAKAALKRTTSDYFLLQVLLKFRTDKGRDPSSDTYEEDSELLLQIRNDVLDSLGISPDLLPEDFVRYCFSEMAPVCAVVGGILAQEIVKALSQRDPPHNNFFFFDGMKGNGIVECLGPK
Chain of SAE1 (Q9UBT2 whole entry): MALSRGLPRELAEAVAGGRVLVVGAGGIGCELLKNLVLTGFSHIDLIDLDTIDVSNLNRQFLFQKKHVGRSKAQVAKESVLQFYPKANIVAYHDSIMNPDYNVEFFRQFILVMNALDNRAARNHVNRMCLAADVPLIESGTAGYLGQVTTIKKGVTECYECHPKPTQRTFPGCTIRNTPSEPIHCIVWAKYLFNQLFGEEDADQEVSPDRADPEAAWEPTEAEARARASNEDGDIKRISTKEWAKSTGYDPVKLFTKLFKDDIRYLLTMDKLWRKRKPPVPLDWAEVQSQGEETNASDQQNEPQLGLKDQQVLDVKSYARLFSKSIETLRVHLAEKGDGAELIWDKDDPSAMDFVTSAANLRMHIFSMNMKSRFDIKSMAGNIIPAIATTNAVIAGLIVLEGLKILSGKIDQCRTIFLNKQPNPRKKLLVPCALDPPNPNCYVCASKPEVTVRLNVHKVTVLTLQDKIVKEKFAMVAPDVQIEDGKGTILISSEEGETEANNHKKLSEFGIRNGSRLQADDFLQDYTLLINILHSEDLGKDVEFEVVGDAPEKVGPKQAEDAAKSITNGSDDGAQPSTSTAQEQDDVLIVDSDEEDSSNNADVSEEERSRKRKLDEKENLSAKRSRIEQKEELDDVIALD

IC50 [1] | Structure (SMILES) | IC50 (SAE1)
0.207 µM | [2H]C([2H])([2H])N(C/C=C/C(=O)N1Cc2sc(C#N)cc2[C@H](c2ccccc2-c2cn(CC)nc2C(F)(F)F)C1)C([2H])([2H])[2H] [Example 245, (S,E)-6-(4-(bis(methyl-d3)amino)but-2-enoyl)-4-(2-(1-ethyl-3-(trifluoromethyl)-1 H-pyrazol-4-yl)phenyl)-4,5,6,7-tetrahydrothieno[2,3-c]pyridine-2-carbonitrile] | 4150 nM
1.95 µM | CCn1cc(-c2ccccc2[C@@H]2CN(C(=O)/C=C/COC)Cc3sc(C#N)cc32)c(C(F)(F)F)n1 [Example 7, (S, E)-4-(2-(1-Ethyl-3-(trifluoromethyl)-1 H-pyrazol-4-yl)phenyl)-6-(4-methoxybut-2-enoyl)-4,5,6,7-tetrahydrothieno[2,3-c]pyridine-2-carbonitrile] | 9310 nM
0.356 µM | CCn1cc(-c2ccccc2C2CN(C(=O)/C=C/CN(C)C)Cc3sc(C#N)c(Cl)c32)c(C(F)(F)F)n1 (stereo not shown) [Example 214, (E)-3-chloro-6-(4-(dimethylamino)but-2-enoyl)-4-(2-(1-ethyl-3-(trifluoromethyl)-1 H-pyrazol-4-yl)phenyl)-4,5,6,7-tetrahydrothieno[2,3-c]pyridine-2-carbonitrile] | 3970 nM
0.0473 µM | CCn1cc(-c2c(F)cccc2[C@@H]2CN(C(=O)/C=C\CN(C)C)Cc3sc(C#N)c(C)c32)c(C(F)(F)F)n1 [Compound 223] | 52 nM
– | CCn1cc(-c2ccccc2[C@@H]2CN(C(=O)/C=C/C3CNC3)Cc3sc(C#N)cc32)c(C(F)(F)F)n1 [Example 108, (S, E)-6-(3-(Azetidin-3-yl)acryloyl)-4-(2-(1-ethyl-3-(trifluoromethyl)-1 H-pyrazol-4-yl)phenyl)-4,5,6,7-tetrahydrothieno[2,3-c]pyridine-2-carbonitrile] | 11000 nM
0.69 µM | COc1cncnc1-n1cc(-c2ccccc2[C@@H]2CN(C(=O)/C=C/CN(C)C)Cc3sc(C#N)cc32)c(C(F)(F)F)n1 [Example 178, (S,E)-6-(4-(dimethylamino)but-2-enoyl)-4-(2-(1-(5-methoxypyrimidin-4-yl)-3-(trifluoromethyl)-1H pyrazol-4-yl)phenyl)-4,5,6,7-tetrahydrothieno[2,3-c]pyridine-2-carbonitrile] | 16700 nM
0.197 µM | [2H]C([2H])([2H])N(C/C=C/C(=O)N1Cc2sc(C#N)cc2[C@H](c2cccc(F)c2-c2cn(CC)nc2C(F)(F)F)C1)C([2H])([2H])[2H] [Example 48, (S,E)-6-(4-(bis(methyl-d3)amino)but-2-enoyl)-4-(2-(1-ethyl-3-(trifluoromethyl)-1 H-pyrazol-4-yl)-3-fluorophenyl)-4,5,6,7-tetrahydrothieno[2,3-c]pyridine-2-carbonitrile] | 1120 nM
0.298 µM | CCn1cc(-c2c(F)cccc2[C@@H]2CN(C(=O)/C=C\CNC)Cc3sc(C#N)c(C)c32)c(C(F)(F)F)n1 [Compound 225] | 34 nM
0.321 µM | CC(C)n1cc(-c2ccccc2[C@@H]2CN(C(=O)/C=C/CN(C)C)Cc3sc(C#N)cc32)c(C(F)(F)F)n1 [Example 175] | 3050 nM
– | CCn1cc(-c2ccccc2[C@@H]2CN(C(=O)/C=C/CNC3(C)CNC3)Cc3sc(C#N)cc32)c(C(F)(F)F)n1 [Example 98, (S,E)-4-(2-(1-Ethyl-3-(trifluoromethyl)-1H pyrazol-4-yl)phenyl)-6-(4-((3-methylazetidin-3-yl)amino)but-2-enoyl)-4,5,6,7-tetrahydrothieno[2,3-c]pyridine-2-carbonitrile] | > 25000 nM
– | CCOC/C=C/C(=O)N1Cc2sc(C#N)cc2[C@H](c2ccccc2-c2cn(CC)nc2C(F)(F)F)C1 [Example 8, (S, E)-6-(4-Ethoxybut-2-enoyl)-4-(2-(1-ethyl-3-(trifluoromethyl)-1 H-pyrazol-4-yl)phenyl)-4,5,6,7 tetrahydrothieno[2,3-c]pyridine-2-carbonitrile] | 10800 nM
